Key:
Test in all cases: REVEAL binding assay
Conditions in all cases: score as percentage of the signal generated by the positive control peptide
[1] = system: HLA-A1
Protocol: Binding properties to HLA for the ninemers listed in table 6 were tested for the following HLA-classes:
(§2) HLA-A1, HLA-A2, HLA-A3, HLA-A11, HLA-A24, HLA-A29, HLA-B7, HLA-B8, HLA-B14, HLA-B15, HLA-B27, HLA-B35, HLA-B40.
(§3) The REVEAL™ binding assay determined the ability of each candidate peptide to bind to one or more MHC class I alleles and stabilizing the MHC-peptide complex. […] Detection is based on the presence or absence of the native conformation of the MHC-peptide complex. Each peptide is given a score relative to the positive control peptide, which is a known T cell epitope.

[2] = system: HLA-A24
[3] = system: HLA-A29
[4] = system: HLA-B8
[5] = system: HLA-B14
Description: as §2, §3

[6] = system: HLA-B15
Description: as §2, §3

[7] = target: HLA-A11 (Homo sapiens, UniProt P04439, A114D/F33Y/S129P)
Method in brief: (§1)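 Synthetic nonamer peptides were tested for their ability to bind and stabilize MHC class I–peptide complexes, detected by the native conformation of the complex. Each peptide is scored relative to a positive-control known T-cell epitope.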

[8] = target: HLA-A2 (Homo sapiens, UniProt P04439, D140Y/D185E/D98H/E176V/E277Q/G131W/G231S/I119V/I121R/I166T/I218V/N151K/N90K/P208A/P217A/Q86G/Q94H/R138H/R169H)
Method in brief: as §1

[9] = target: HLA-A3 (Homo sapiens, UniProt P04439)
Method in brief: as §1

[10] = target: HLA-B27 (Homo sapiens, UniProt P01889, D138H/D201E/E176V/E204Q/G107R/H137Y/K202T/N104T/N87E/Q56L/Q94K/R106L/R155S/R180L/S101D/S121N/S48T/Y140D/Y33H/Y91C)
Method in brief: as §1

[11] = target: HLA-B7 (Homo sapiens, UniProt P01889)
Method in brief: as §1

[12] = system: HLA-B35
Description: as §2, §3

[13] = system: HLA-B40
Method in brief: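 Peptide–MHC class I complex stability assay on nonamers. Output: quantitative % relative to high-affinity control epitope, with putative pass/fail designation.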

HLA-A3, sequence (P04439 25-299): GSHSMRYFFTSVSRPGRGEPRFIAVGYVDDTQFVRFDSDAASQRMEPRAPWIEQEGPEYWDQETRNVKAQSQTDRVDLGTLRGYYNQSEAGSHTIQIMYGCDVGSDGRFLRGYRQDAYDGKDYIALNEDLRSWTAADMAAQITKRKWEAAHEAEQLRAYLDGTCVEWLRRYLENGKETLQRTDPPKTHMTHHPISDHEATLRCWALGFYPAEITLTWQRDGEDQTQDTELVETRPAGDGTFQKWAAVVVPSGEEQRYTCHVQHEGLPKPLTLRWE
HLA-A3, sequence (P61769 21-119, further chain): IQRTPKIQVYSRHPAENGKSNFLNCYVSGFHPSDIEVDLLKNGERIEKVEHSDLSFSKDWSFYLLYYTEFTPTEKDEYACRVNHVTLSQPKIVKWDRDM
HLA-B7, sequence (P61769 21-119): as the sequence (P61769 21-119, further chain) above
HLA-B7, sequence (P01889 25-299): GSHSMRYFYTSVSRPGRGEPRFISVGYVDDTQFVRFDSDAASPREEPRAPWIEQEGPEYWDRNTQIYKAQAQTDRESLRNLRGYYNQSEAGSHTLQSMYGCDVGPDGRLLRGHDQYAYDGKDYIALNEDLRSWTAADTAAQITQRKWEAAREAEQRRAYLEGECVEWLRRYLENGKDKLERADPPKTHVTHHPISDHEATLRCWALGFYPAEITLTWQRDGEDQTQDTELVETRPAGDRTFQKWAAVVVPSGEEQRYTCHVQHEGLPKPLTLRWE

| Sequence | REVEAL binding score, HLA-type A1 [1] [%] | REVEAL binding score, HLA-type A24 [2] [%] | REVEAL binding score, HLA-type A29 [3] [%] | REVEAL binding score, HLA-type B8 [4] [%] | REVEAL binding score, HLA-type B14 [5] [%] | REVEAL binding score, HLA-type B15 [6] [%] | REVEAL binding score, HLA-type A11 [7] [%] | REVEAL binding score, HLA-type A2 [8] [%] | REVEAL binding score, HLA-type A3 [9] [%] | REVEAL binding score, HLA-type B27 [10] [%] | REVEAL binding score, HLA-type B7 [11] [%] | REVEAL binding score, HLA-type B35 [12] [%] | REVEAL binding score, HLA-type B40 [13] [%] |
| --- | --- | --- | --- | --- | --- | --- | --- | --- | --- | --- | --- | --- | --- |
| RVIETLTSG | 11.61 | 0.96 | 15.52 | 11.83 | 0.11 | 37.99 | 3.25 | 9.82 | 2.23 | 2.32 | 0.50 | 1.90 | 32.30 |
| SRNLGKVID | 15.30 | 0.71 | 9.94 | 16.71 | 0.67 | 11.25 | 4.45 | 4.94 | 3.46 | 1.28 | 1.28 | 4.59 | 33.93 |
| TFSIYLIVS | 9.93 | 0.60 | 8.58 | 9.52 | 0.37 | 8.63 | 2.89 | 2.02 | 0.91 | 1.49 | 1.28 | 2.48 | 23.23 |
| TGNIPGSTY | 10.58 | 0.86 | 35.10 | 10.25 | 1.15 | 52.30 | 6.06 | 3.59 | 13.04 | 1.98 | 1.32 | 48.40 | 38.15 |
| TGNLPGCSF | 11.97 | 4.81 | 18.89 | 8.62 | 0.86 | 45.07 | 2.56 | 5.18 | 3.71 | 2.37 | 2.38 | 11.40 | 73.71 |
| VARALAHGV | 16.10 | 0.32 | 29.43 | 14.31 | 0.17 | 11.26 | 3.47 | 5.85 | 2.77 | 0.62 | 31.59 | 0.27 | 44.29 |
| VGGVYLLPR | 17.88 | 0.34 | 14.20 | 11.57 | 0.44 | 13.22 | 4.16 | 8.73 | 3.41 | 0.79 | 1.15 | 4.02 | 55.61 |
| VIDTLTCGF | 25.85 | 0.95 | 13.90 | 10.00 | 0.11 | 9.49 | 6.00 | 5.14 | 2.93 | 1.11 | 0.45 | 3.26 | 27.24 |
| VIETLTSGF | 14.61 | 0.82 | 13.07 | 12.96 | 0.35 | 10.37 | 3.66 | 4.84 | 2.55 | 1.38 | 0.71 | 2.39 | 24.04 |
| VIRVIAHGL | 18.66 | 0.28 | 27.12 | 32.81 | 0.55 | 9.64 | 4.54 | 8.60 | 4.29 | 1.16 | 29.93 | 2.51 | 52.64 |
| VTGNIPGST | 16.18 | 1.60 | 15.05 | 13.12 | 0.75 | 5.15 | 4.85 | 8.44 | 2.52 | 1.58 | 2.24 | 4.00 | 130.97 |
| YATGNLPGC | 8.10 | 1.20 | 18.82 | 9.51 | 0.41 | 5.09 | 2.16 | 22.46 | 3.67 | 2.44 | 0.76 | 4.52 | 77.49 |
| YIPLVGAPL | 21.80 | 4.51 | 31.09 | 33.10 | 0.13 | 54.57 | 3.54 | 35.00 | 5.29 | 0.69 | 41.87 | 99.81 | 30.22 |
| YLPAVGAPI | 15.76 | 4.65 | 28.40 | 17.92 | 0.12 | 49.63 | 3.07 | 75.80 | 2.58 | 0.51 | 7.70 | 2.03 | 64.34 |
| YVTGNIPGS | 13.33 | 2.71 | 10.29 | 12.40 | 0.76 | 6.16 | 5.18 | 6.88 | 5.34 | 1.98 | 2.70 | 4.42 | 88.29 |

Reference: patent US9550811B2, “Peptide scaffold design” (BIONOR IMMUNO AS, priority 2010, dated 2017)
